Assay results reported in ChEMBL document CHEMBL5029185, “Discovery of Novel Polycyclic Heterocyclic Derivatives from Evodiamine for the Potential Treatment of Triple-Negative Breast Cancer” (J Med Chem, 2021).
pIC50: −log10 of the molar value. The source made the active and inactive calls. No cut-off for these calls is given here.

Legend:
MDA-MB-231 [1] = assay: Induction of mitochondrial membrane disruption in human MDA-MB-231 cells assessed as mitochondrial dysfunction at 0.1 uM measured after 48 hrs by JC-1 staining based flow cytometry (reference value: 3%); type: functional
HepG2 = assay: Antiproliferative activity against human HepG2 cells assessed as inhibition rate incubated for 72 hrs by MTT assay; type: functional, cell-based; settings: HepG2, 72 h
MDA-MB-231 [2] = assay: Antiproliferative activity against human MDA-MB-231 cells assessed as inhibition rate at 1 uM incubated for 72 hrs by MTT assay; type: functional
MDA-MB-231 [3] = assay: Induction of DNA damage in human MDA-MB-231 cells assessed as ROS-mediated oxidative DNA lesions at 0.4 uM measured after 12 hrs by alkaline comet assay; type: functional, cell-based
[4] = target: T1, DNA topoisomerase 1 (Homo sapiens) (UniProt P11387); assay: Induction of topoisomerase 1-DNA cleavable complex in human MDA-MB-231 cells assessed as decrease in free Top1 in nuclear extract at 30 uM measured up to 9 hrs by Immunoband depletion assay; type: cell-based; settings: time hrs <=9
T1 sequence (whole entry): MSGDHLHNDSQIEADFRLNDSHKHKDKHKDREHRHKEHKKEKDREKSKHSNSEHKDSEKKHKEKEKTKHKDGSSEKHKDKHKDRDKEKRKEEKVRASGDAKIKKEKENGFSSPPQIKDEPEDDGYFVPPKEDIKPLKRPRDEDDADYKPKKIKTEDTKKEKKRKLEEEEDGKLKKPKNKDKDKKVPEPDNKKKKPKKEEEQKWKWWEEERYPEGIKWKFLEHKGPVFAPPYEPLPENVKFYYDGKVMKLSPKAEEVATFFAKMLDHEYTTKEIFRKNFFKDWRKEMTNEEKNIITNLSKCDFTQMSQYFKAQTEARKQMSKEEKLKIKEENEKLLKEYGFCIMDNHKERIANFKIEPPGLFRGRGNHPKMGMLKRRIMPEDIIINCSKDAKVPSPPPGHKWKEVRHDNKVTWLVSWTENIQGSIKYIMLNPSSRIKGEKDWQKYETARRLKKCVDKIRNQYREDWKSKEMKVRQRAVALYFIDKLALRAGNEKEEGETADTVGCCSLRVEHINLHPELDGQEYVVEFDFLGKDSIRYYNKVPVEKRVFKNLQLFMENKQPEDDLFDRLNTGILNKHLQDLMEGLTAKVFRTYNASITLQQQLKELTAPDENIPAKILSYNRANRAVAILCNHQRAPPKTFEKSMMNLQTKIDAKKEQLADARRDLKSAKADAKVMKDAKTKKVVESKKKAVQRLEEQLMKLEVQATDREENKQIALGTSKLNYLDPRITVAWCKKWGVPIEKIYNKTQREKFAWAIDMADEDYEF

MDA-MB-231 [5] = assay: Induction of mitochondrial membrane disruption in human MDA-MB-231 cells assessed as mitochondrial dysfunction at 0.4 uM measured after 48 hrs by JC-1 staining based flow cytometry (reference value: 3%); type: functional
MDA-MB-231 [6] = assay: Induction of apoptosis in human MDA-MB-231 cells assessed as increase in Bax expression at 0.1 to 0.4 uM measured after 48 hrs by Western blot analysis; type: functional, cell-based; settings: dose 0.1-0.4 µM
LoVo = assay: Antiproliferative activity against human LoVo cells assessed as inhibition rate incubated for 72 hrs by MTT assay; type: functional, cell-based
HCT-116 = assay: Antiproliferative activity against human HCT-116 cells assessed as inhibition rate incubated for 72 hrs by MTT assay; type: functional, cell-based; settings: HCT-116, 72 h
4T1 = assay: Antiproliferative activity against mouse 4T1 cells assessed as inhibition rate incubated for 72 hrs by MTT assay; type: functional, cell-based; settings: 4T1, 72 h
MDA-MB-231 [7] = assay: Antiproliferative activity against human MDA-MB-231 cells assessed as inhibition rate incubated for 72 hrs by MTT assay; type: functional, cell-based; settings: MDA-MB-231, 72 h
MDA-MB-231 [8] = assay: Induction cell cycle arrest in human MDA-MB-231 cells assessed as increase in p21 expression at 0.4 uM measured after 48 hrs by Western blot analysis; type: functional, cell-based
[9] = Ratio of IC50 for antiproliferative activity against human MDA-MB-231 cells transfected with siRNA-Top1 to IC50 for antiproliferative activity against human MDA-MB-231 cells transfected with siRNA-Ctrl assessed as cell viability by MTT assay; type: functional
MDA-MB-231 [10] = assay: Induction of apoptosis in human MDA-MB-231 cells assessed as increase in cytochrome c expression at 0.1 to 0.4 uM measured after 48 hrs by Western blot analysis; type: functional, cell-based; settings: dose 0.1-0.4 µM
MDA-MB-231 [11] = assay: Induction of apoptosis in human MDA-MB-231 cells assessed as changes in cell morphology and nuclei at 0.1 to 0.4 uM by Hoechst 33342 staining based fluorescence microscopy; type: functional; settings: dose 0.1-0.4 µM
MDA-MB-231 [12] = assay: Effect on Akt expression in human MDA-MB-231 cells at 0.4 uM measured after 48 hrs by Western blot analysis; type: functional, cell-based
H22 = assay: Antiproliferative activity against mouse H22 cells assessed as inhibition rate incubated for 72 hrs by MTT assay; type: functional, cell-based; settings: H22, 72 h
MDA-MB-231 [13] = assay: Induction cell cycle arrest in human MDA-MB-231 cells assessed as increase in p53 expression at 0.4 uM measured after 48 hrs by Western blot analysis; type: functional, cell-based
MCF7 = assay: Antiproliferative activity against human MCF7 cells assessed as inhibition rate incubated for 72 hrs by MTT assay; type: functional, cell-based; settings: MCF7, 72 h
MDA-MB-231 [14] = assay: Induction of apoptosis in human MDA-MB-231 cells assessed as increase in cleaved PARP level at 0.4 uM incubated for 48 hrs by Western blot analysis; type: functional, cell-based
MDA-MB-231 [15] = assay: Inhibition of PI3K in human MDA-MB-231 cells assessed as Akt phosphorylation at 0.4 uM measured after 48 hrs by Western blot analysis; type: cell-based
[16] = target: T1, DNA topoisomerase 1 (Homo sapiens); assay: Inhibition of topoisomerase 1 (unknown origin) assessed as relaxation of supercoiled plasmid pBR322 DNA upto 500 uM incubated for 15 mins by agarose gel electrophoresis; settings: dose microM <=500, time 15.0 min
MDA-MB-231 [17] = assay: Effect on PI3K expression in human MDA-MB-231 cells at 0.4 uM measured after 48 hrs by Western blot analysis; type: functional, cell-based
[18] = Selectivity index, ratio of IC50 for human MCF-10A cells to IC50 for human MDA-MB-231 cells; settings: MCF-10A cells versus MDA-MB-231 cells
MDA-MB-231 [19] = assay: Induction of mitochondrial membrane disruption in human MDA-MB-231 cells assessed as mitochondrial dysfunction at 0.2 uM measured after 48 hrs by JC-1 staining based flow cytometry (reference value: 3%); type: functional
MDA-MB-231 [20] = assay: Induction of ROS generation in human MDA-MB-231 cells by fluorescent dye […] based flow cytometry; type: functional, cell-based
MDA-MB-231 [21] = assay: Antiproliferative activity against human MDA-MB-231 cells assessed as inhibition rate at 10 uM incubated for 72 hrs by MTT assay; type: functional
HEK293 = assay: cells; type: ADME, cell-based; settings: Homo sapiens, HEK293, 72 h
Description: Antiproliferative activity against HEK293 cells assessed as inhibition rate incubated for 72 hrs by MTT assay

[22] = target: T1, DNA topoisomerase 1 (Homo sapiens); assay: Inhibition of topoisomerase 1 (unknown origin) assessed as relaxation of supercoiled plasmid pBR322 DNA at 20 uM incubated for 15 mins by agarose gel electrophoresis

pIC50 (HepG2): 5.33 | Activity [4]: Active | pIC50 (LoVo): 5.14 | pIC50 (HCT-116): 6.12 | pIC50 (4T1): 6.14 | pIC50 (MDA-MB-231 [7]): 6.44 | pIC50 (MCF7): 6.21 | Activity [16]: inactive | inhibition [22]: Active
Compound: O=C1c2cc(Cl)ccc2OC2c3oc4ccc(O)cc4c3CCN12 (centres undefined)
Activity (MDA-MB-231 [1]): 12.2% | inhibition at 1 µM (MDA-MB-231 [2]): 82.4% | Activity (MDA-MB-231 [3]): Active | Activity (MDA-MB-231 [5]): 25% | Activity (MDA-MB-231 [6]): Active | Activity (MDA-MB-231 [8]): Active | Ratio IC50 [9]: 12.7 | Activity (MDA-MB-231 [10]): Active | Activity (MDA-MB-231 [11]): Active | Activity (MDA-MB-231 [12]): inactive | pIC50 (H22): 5.99 | Activity (MDA-MB-231 [13]): Active | Activity (MDA-MB-231 [14]): Active | inhibition (MDA-MB-231 [15]): Active | Activity (MDA-MB-231 [17]): inactive | selectivity ratio [18]: 18.8 | Activity (MDA-MB-231 [19]): 18.5% | Activity (MDA-MB-231 [20]): Active | inhibition at 10 µM (MDA-MB-231 [21]): 84.3% | pIC50 (HEK293): 4.45
